Results as given in PubChem BioAssay AID179 (DTP/NCI, 2004).
pEC50, pIC50: −log10 of the molar value. Several values for one entry are separate records, joined by “and”; a condition that tells them apart may be missing. Identical values can stand only once. Activity calls are given as the source filed them.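 Rule for the calls: active = compounds giving half or more protection of infected cells from virus-caused growth loss, again on retest; inactive = the rest.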 Where a SMILES comes first, the peptide text is derived from it. [ ]: non-standard residue; d: D form. The star is where a group is joined. Arg(NO2) = N=C(NCCC[CH](N)C(=O)O)N[N+](=O)[O-]; Cbz = O=C(OCc1ccccc1)*

System: CEM cells HIV-1 protection, formazan growth assay
Test: NCI AIDS Antiviral Assay
Conditions: for pIC50: measured here: growth of uninfected CEM cells
Summary of the method: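 Human CEM cells, uninfected and HIV-1-infected, exposed to five drug concentrations; growth measured by soluble formazan assay and scored as percent protection from infection, with protecting compounds retested.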

Structure (SMILES)	pEC50	pIC50	outcome
COc1cc2cc(C(=O)N3CC(CCl)c4ccc(N)cc43)[nH]c2c(OC)c1OC (stereo not drawn)	< 5.82	6.53	
Oc1ccc(Cl)cc1C1=NC(/N=C\c2ccccc2)=NC(c2ccccc2)C1 (stereo not drawn)	< 3.70	5.05	
Cn1c([C@H](C#N)c2ncccc2[N+](=O)[O-])nc2ccccc21	< 3.70	3.96	
CS(=O)(=O)Nc1c(-c2ccccc2)oc2ccccc2c1=O	< 3.70	< 3.70	
CCN(CC)CCOC(=O)c1cc2ccccc2[nH]1	< 3.70	< 3.70	
O=C1NN2CCN=C2c2ncccc21	< 3.03	< 3.03	
O=c1[nH]c(-n2[nH]c3c(c2=O)CCCC3)nc(O)c1-c1ccccc1	< 3.70	< 3.70	
N#CCCN(C1=NN(C(=O)CC(=O)Nc2ccccc2Cl)C(c2ccccc2)C1)c1ccccc1Cl (stereo not drawn)	< 4.44	< 4.44	
COC(=O)c1c(C)cccc1/C=C1\Cc2ccc(C)c(C)c2C1=O	< 3.70	< 3.70	
Cc1cc(Br)ccc1N=Nc1c(C)noc1-c1ccccc1			inactive
COc1cc(C2SCC(=O)N2c2ccc(-n3c(-c4ccccc4)nc4ccccc4c3=O)cc2)cc(OC)c1OC (stereo not drawn)	< 3.70	3.75	
COC1/C=C/OC2(C)Oc3c(C)c(O)c4c(O)c(cc(OCC(=O)N5CCC(O)(Cc6ccccc6)CC5)c4c3C2=O)NC(=O)/C(C)=C/C=CC(C)C(O)C(C)C(O)C(C)C(OC(C)=O)C1C (stereo not drawn)	< 3.95	4.51	
CC1(C)SCc2nc3ncccc3n21	< 2.91	3.21	
OC1C(O)C(O)C2(CO2)C(O)C1O (stereo not drawn)	< 3.70	< 3.70	
COc1ccc(NC(=O)CC/C(CC(=O)C(C)(C)C)=N\NC(=O)C(N)=O)cc1	< 4.03	< 4.03	
COc1ccccc1NC(=O)C1=C(C)NC(C)=C(C(=O)Nc2ccccc2OC)C1/C=C/c1ccccc1			inactive
CC(CC=O)Nc1nn2c(=O)c3ccccc3nc2s1 (stereo not drawn)	< 3.70	3.88	
COc1ccc(C2CC(=O)CC(c3ccc(OC)cc3)C23C(=O)NC(=O)NC3=O)cc1 (stereo not drawn)	< 4.00	4.39	
O=C(O)CCC(NC(=O)c1ccccc1C(=O)O)C(=O)O (stereo not drawn)	< 3.70	< 3.70	
Cc1nn2c(N)cc(=O)nc2nc1/C=C/c1ccc(N(C)C)cc1	< 3.70	5.37	
COc1ccc(/C=C2/C[N+](C)(C)C/C(=C/c3ccc(OC)cc3)C2=O)cc1	< 3.29	4.44	
O=C(NCc1cccc(C(F)(F)F)c1)c1cc2sccc2nc1C(F)(F)F	< 3.70	< 3.70	
COC(=O)C1C(=O)CC[C@H]2CN3CCc4c([nH]c5ccccc45)C3CC12 (stereo partly drawn)	< 4.27	< 4.27	

Structure (SMILES)	pEC50	pIC50	outcome
COc1ccc(C2C(Cl)C(=O)N2NC(=O)c2ccc(NC(C)=O)cc2)cc1OC (stereo not drawn)	< 3.70	< 3.70	
CC(=O)Nc1cc(Nc2cc(=O)[nH]c(=O)[nH]2)ccc1C	< 3.70	< 3.70	
COc1cc2cnc3c4cc(OC)c(OC)cc4ccc3c2cc1OC			inactive
CC(=O)N1OC2(C)c3ccccc3C1(C)c1ccccc12	< 4.59	4.63	
CC(C)CC1NC(CC(C)C)N2C(CC(C)C)N12 (stereo not drawn)	< 4.40	< 4.40	
CCC(=O)COc1ccc(NC(NC(=O)C(C(F)(F)F)C(F)(F)F)(C(F)(F)F)C(F)(F)F)cc1			inactive
CCn1c(N)c(N=O)c(=O)[nH]c1=O	< 3.70	< 3.70	
CC(C)=CCCC(C)CCN(O)CC(CO)OC(CO)n1cc(C)c(=O)[nH]c1=O (stereo not drawn)	< 3.70	3.87	
O=C(O)C1CCC(c2ccc(F)cc2)=N1 (stereo not drawn)	< 3.70	< 3.70	
COP(=O)(OC)/C(=C/c1cn(C(C)=O)c2ccccc12)NC(C)=O	< 3.70	4.76	
N=C(N)/N=C(/C=C/c1ccccc1)CC1OC(=O)c2ccccc21 (stereo not drawn)	< 4.37	< 4.37	
CC1CC(=O)Nc2ccccc2N1 (stereo not drawn)	< 3.70	< 3.70	
c1ccc(-c2cc(-c3cccs3)c(-c3cccs3)s2)cc1	< 3.70	4.44	
O=[N+]([O-])c1ccc(/C=C/c2cc(-c3ccccc3)nc3ccc4ccccc4c23)cc1	< 3.70	< 3.70	
O=C(O)Cc1ccc2c(c1O)C(=O)c1c(ccc(CC(=O)O)c1O)C2=O	< 3.72	3.90	
CCC1=C(OC)c2nc(C)ccc2C(=O)C1=O			inactive
COC(=O)c1cc2c3c(c1)Oc1cc(C(=O)OC)cc4c1C3c1c(cc(C(=O)OC)cc1O4)O2	< 3.70	4.26	
c1ccc(SCCCC(Sc2ccccc2)Sc2ccccc2)cc1			inactive
Brc1ccc(CCc2ncc[nH]2)cc1	< 3.55	3.76	
O=C(O)c1cc(N=Nc2cccc([N+](=O)[O-])c2)ccc1O	< 3.70	4.17	
CCc1[nH]c(=O)c2oc3cc4ccccc4cc3c2c1C(=O)O	< 3.70	< 3.70	
C#CCOc1cc2c(c3oc(=O)cc(CCC)c13)[C@@H](O)[C@H](C)[C@@H](C)O2	< 3.70	< 3.70	
C/C(=N\NC(=S)N1CCN(c2ccccn2)CC1)c1ncccn1	< 4.40	7.32	

Structure (SMILES)	pEC50	pIC50	outcome
NC1CC2C3CCC2C1C3=O (stereo not drawn)	< 3.70	< 3.70	
Cc1cc2c3c(c1)S(=O)(=O)c1cc(Cl)ccc1N3CCC2	< 3.70	< 3.70	
COC(=O)C(CCCN=C(N)N[N+](=O)[O-])NC(=O)C(Cc1ccccc1)NC(=O)C1CCCN1C(=O)OCc1ccccc1 (stereo not drawn) (Cbz-Pro-Phe-[Arg(NO2)]-OMe; configuration not given here)	< 3.95	< 3.95	
CC(=O)C(CN1C(=O)c2ccccc2C1=O)C(C)=O	< 4.41	< 4.41	
CCC1(CC)COP(=S)([S][Sb]([O]C(C)=O)[S]P2(=S)OCC(CC)(CC)CO2)OC1	< 4.24	5.03	
OC12CCC3(OC4CCCCO4)c4ccccc4C3C1c1ccccc12 (stereo not drawn)	< 3.70	4.05	
Cc1ccc(/C=C2\CN(C)CC3C2=NN(c2ccccc2)C3c2ccc(C)cc2)cc1 (stereo not drawn)	< 3.70	< 3.70	
O=C(CCc1cc(O)cc(O)c1)NCCc1cc(OCc2ccccc2)cc(OCc2ccccc2)c1			inactive
O=[N+]([O-])C(=C(Nc1ccccc1)Nc1ccccc1)C(Cl)=C(Cl)Cl	< 3.70	4.76	
Cc1ccc(-c2cn3c(nc4ccccc43)c(C)n2)cc1	< 3.70	4.18	
CC1C2C1C1C3NN=CC3C2n2c(=O)n(-c3ccccc3)c(=O)n21 (stereo not drawn)	< 3.70	< 3.70	
O=C1CCCC1CN1CCCCC1 (stereo not drawn)			inactive
OCCN1CCN(CC/C=C2\c3ccccc3Sc3ccc(Cl)cc32)CC1	< 3.70	4.99	
N.N.N.N.O=S(=O)([O-])[O-].[Co+3].[OH3+].[OH3+]	< 4.40	4.41	
C=CCOc1cc(NC(=S)c2sccc2C)ccc1Cl	5.84	4.84	
CCCCOP(=O)(OCCCC)C(NS(=O)(=O)c1ccccc1)(C(=O)OCC)C(F)(F)F (stereo not drawn)	< 3.70	4.72	
Nc1nc2c(c(-c3ccc(F)cc3)n1)COC/C2=C\c1ccc(F)cc1	< 3.70	3.80	
Cc1ccc(NC(=O)CC/C(CC(=O)C(C)(C)C)=N/Nc2nnc(C)n2N)cc1C	< 4.06	< 4.06	
COC(=O)c1cc(C(=CCC(=O)N[C@@H]2CC[C@@]3(C)[C@@H](CC[C@@H]4[C@@H]3CC[C@]3(C)[C@@H]([C@H](C)CCCC(C)C)CC[C@@H]43)C2)c2cc(Cl)c(OC)c(C(=O)OC)c2)cc(Cl)c1OC	< 3.70	< 3.70	
O=C(CO)CC(=O)C(=O)Nc1ccccc1	< 3.82	< 3.82	
O=C1NC2(CCN(CCCC3(c4ccc(F)cc4)OCCO3)CC2)Oc2ccccc21	< 4.00	< 4.00	
ClCCCCOC1CCCCO1 (stereo not drawn)			inactive
COc1cc2c3c(c1)SCC(=O)N3CCN2	< 3.70	< 4.00	

Structure (SMILES)	pEC50	pIC50	outcome
CC[C@H](O)[C@H](C)C=C1SCCCS1	< 3.70	< 3.70	
C=CCCNCC/C=C\[Si](C)(C)C	< 2.90	2.91	
COC(=O)C1CCC(=S)N1C(=O)OCc1ccccc1 (stereo not drawn)	< 3.70	< 3.70	
O=C1C=C2C=CC3CC2(O1)C1CCCCN31 (stereo not drawn)	< 2.94	5.05 and 5.27	
Cc1cc(C)nc(NS(=O)(=O)c2ccc(Nc3c4ccc(Cl)cc4nc4c(C(=O)Nc5ccc(S(=O)(=O)N=C(N)N)cc5)cccc34)cc2)n1	< 4.31	< 4.31	
Cc1ccccc1-n1c(C)nc(-c2ccccc2)cc1=O	< 4.58	< 4.58	
COC(=O)c1c2c(cc3c1CC1(Cc4cc5c(cc4C1)CCCC5)C3)CCCC2	< 3.70	< 3.70	
C[S+](C)c1ccc(Cl)cc1	< 3.06	4.16	
CC1CCN(SSc2nc3ccccc3s2)CC1	4.34	3.95	
N=c1ccc2nc(N)nn(O)c-2c1	< 3.70	< 3.70	
O=C(O)C1CCCN1C(=O)c1ccccn1 (stereo not drawn)	< 3.70	< 3.70	
O=C(c1ccccc1)c1cc2c([nH]c1=O)CCCCCC2	< 3.70	< 3.70	
O=C1OC(C2Cc3ccc4ccccc4c3C2=O)c2ccccc21 (stereo not drawn)	< 4.00	4.13	
CC(C)Oc1nc(N2CCNCC2)nc2c1CCC2	< 3.70	4.40	
COc1cc(-c2cc(=O)c3cc(Cl)cc(Cl)c3o2)cc(OC)c1OC	< 4.00	< 4.00	
Cc1cccc(C=NC23CC4CC(CC(C4)C2)C3)c1	< 3.99	< 3.99	
NNC(=O)CCc1c[nH]c2ccccc12	< 2.91	3.18	
Cc1nc(C)c(N2CCN([N+](=O)[O-])CC2)c(=O)[nH]1	< 3.70	< 3.70	
CC(C)OP(=O)(OC(C)C)C(N(C)C)P(=O)(OC(C)C)OC(C)C.[Cl][Sn]([Cl])([Cl])[c]1ccccc1			inactive
C[n+]1c(-c2ccc(/C=N/NC(=S)N/N=C/c3ccc(-c4cn5ccccc5[n+]4C)cc3)cc2)cn2ccccc21	< 4.40	4.66	
